The subject of assay [1] is SARS-CoV2. Put plainly: Drug pretreatment of Vero E6 cells prior to SARS-CoV2 infection, indirect immunofluorescence. The class given is cell-based. The method, then: (§1) In carrying out the in vitro experiments, vero E6 cells (an African green monkey kidney cell line) were infected with SARS-CoV2 at a multiplicity of infection of 0.5 for 1 hour. The cells were washed with PBS and then incubated in OPTI-MEM (Invitrogen) medium with or without various concentrations of the following drug candidates: Artemether (from BiopharmaRx) Hydroxychloroquine (from Sigma Aldrich), Atazanavir (from Sigma Aldrich), and Efavirenz (from Sigma Aldrich), Fosamprenavir Calcium (from Sigma Aldrich), Saquinavir (from Sigma Aldrich) and Remdesivir (from AOBIOUS, INC., USA)
(§2) Immunofluorescence staining was performed with SARS-CoV2-specific hyperimmune mouse ascitic fluid (HMAF) followed by anti-mouse fluorescein-coupled antibody.
Experiments were carried out to determine the impact of artemether treatment on SARS-CoV2 infection. Permissive Vero E6 cells were pre-treated with various concentrations of artemether (0.1-50 μM) for 18-24 hours prior to virus infection. Cells were then infected with SARS-CoV2, and virus antigens were visualized by indirect immunofluorescence. For quantitative purposes, we counted the number of cells stained positive from three random locations on a slide. The average number of positively stained control cells was scored as 100% and was compared with the number of positive cells observed under various artemether concentrations. Pretreatment with 0.1, 1, 10, 20, 30, 40 and 50 μM artemether reduced infectivity by 4%, 12%, 32%, 45%, 63%, 92% and 100% respectively. Reproducible results were obtained from three independent experiments.

In assay [2] the test system is SARS-CoV2. Nature of the assay: Drug added to Vero E6 cells immediately after SARS-CoV2 adsorption, indirect immunofluorescence after 24 hours. The class given is cell-based. The following applies: for inhibition: added after the initiation of infection. As for the experimental part:
as §1, §2
The antiviral properties of artemether on SARS-CoV2 after the initiation of infection were studied. Vero E6 cells were infected with the virus and fresh medium supplemented with various concentrations of artemether was added immediately after virus adsorption. Infected cells were incubated for an additional 24 hours, after which the presence of virus antigens was analyzed by indirect immunofluorescence analysis. When artemether was added after the initiation of infection, there was a dramatic dose dependent decrease in the number of virus antigen-positive cells. […] A half-maximal inhibitory effect was estimated to occur at 16.5±1.0 μM artemether. […] (FIG. 2).

Setting [3] is: pretreatment 18-24 hours prior to virus infection, 1 μM.
[4] abbreviates: pretreatment 18-24 hours prior to virus infection, 10 μM.
[5] abbreviates: pretreatment 18-24 hours prior to virus infection, 20 μM.
Where [6] appears, read: pretreatment 18-24 hours prior to virus infection, 40 μM.
Setting [7] is: Severe acute respiratory syndrome coronavirus 2, Vero C1008, read-out: half-maximal inhibitory effect, drug added immediately after virus adsorption, Vero E6 cells, estimated.
The mark [8] stands for this setting: pretreatment 18-24 hours prior to virus infection, 0.1 μM.
[9] abbreviates: pretreatment 18-24 hours prior to virus infection, 30 μM.
Where [10] appears, read: pretreatment 18-24 hours prior to virus infection, 50 μM.
The mark [11] stands for this setting: Severe acute respiratory syndrome coronavirus 2, Vero C1008, drug added after the initiation of infection, Vero E6 cells, read-out: concentration that reduced the infection by 50%.
Setting [12] is: Severe acute respiratory syndrome coronavirus 2, Vero C1008, drug added immediately after virus adsorption, Vero E6 cells, estimated, read-out: half-maximal inhibitory effect.

Structures are written as SMILES. Where a name gives a salt, the structure may show the parent alone. Read-outs that look alike come from different tables or passages of the source.

Regarding `CC(C)(C)NC(=O)[C@@H]1C[C@@H]2CCCC[C@@H]2CN1C[C@@H](O)[C@H](Cc1ccccc1)NC(=O)[C@H](CC(N)=O)NC(=O)c1ccc2ccccc2n1` [saquinavir, Saquinavir], the reduced infectivity is 5% in the assay with SARS-CoV2 [1] (setting [3]); 16% with SARS-CoV2 [1] (setting [4]); 35% in the assay with SARS-CoV2 [1] (setting [5]); 47% in the assay on SARS-CoV2 [1] (setting [6]); 78% in the assay on SARS-CoV2 [1] (pretreatment 18-24 hours prior to virus infection, 60 μM); 85% with SARS-CoV2 [1] (pretreatment 18-24 hours prior to virus infection, 80 μM). For the same molecule, the reduced infectivity in the assay with SARS-CoV2 [1] (pretreatment 18-24 hours prior to virus infection, 100 μM) amounted to 100%. The inhibition with SARS-CoV2 [2] (120-240 μM concentrations) is listed as 63%-96%. Further, in the assay with SARS-CoV2 [2] (setting [7]), the IC50 is 96 ± 1 µM.
In the case of `O=C1Nc2ccc(Cl)cc2[C@@](C#CC2CC2)(C(F)(F)F)O1` [efavirenz, Efavirenz], the reduced infectivity with SARS-CoV2 [1] (setting [8]) stood at 3%; in the assay on SARS-CoV2 [1] (setting [3]), 9%; with SARS-CoV2 [1] (setting [4]), 25%; in the assay with SARS-CoV2 [1] (setting [5]) it was 48%; with SARS-CoV2 [1] (setting [9]), 73%; with SARS-CoV2 [1] (setting [6]) it was 89%. The reduced infectivity in the assay with SARS-CoV2 [1] (setting [10]) was 100%. Further, the inhibition with SARS-CoV2 [2] (80-200 μM concentrations) was 73%-96%. Also, the IC50 in the assay with SARS-CoV2 [2] (Severe acute respiratory syndrome coronavirus 2, Vero C1008, read-out: concentration that reduced the infection by 50%, drug added after the initiation of infection, Vero E6 cells) is ~55 µM; in the assay on SARS-CoV2 [2] (setting [7]), 51 ± 1 µM.
Consider `CC(C)CN(C[C@H](OP(=O)(O)O)[C@H](Cc1ccccc1)NC(=O)O[C@H]1CCOC1)S(=O)(=O)c1ccc(N)cc1` [fosamprenavir calcium, Fosamprenavir Calcium], for which the reduced infectivity in the assay on SARS-CoV2 [1] (setting [8]) is 3%; with SARS-CoV2 [1] (setting [3]), 10%; in the assay with SARS-CoV2 [1] (setting [4]), 28%; in the assay on SARS-CoV2 [1] (setting [5]) it was 55%; with SARS-CoV2 [1] (setting [9]) it was 73%; in the assay with SARS-CoV2 [1] (setting [6]), 91%. In the assay with SARS-CoV2 [1] (setting [10]), the reduced infectivity is listed as 100%. Further, the inhibition in the assay with SARS-CoV2 [2] (80-200 μM concentrations) is 75%-96%. In addition, the IC50 in the assay with SARS-CoV2 [2] (setting [11]) is ~58 µM; in the assay with SARS-CoV2 [2] (setting [12]), 58 ± 1 µM; in the assay with SARS-CoV2 [2] (read-out: concentration that reduced the infection by 50%, drug added after the initiation of infection, Vero E6 cells) it was ~95 µM.
For `C[C@H]1O[C@@H](O[C@H]2[C@@H](O)C[C@H](O[C@H]3[C@@H](O)C[C@H](O[C@H]4CC[C@@]5(C)[C@H](CC[C@@H]6[C@@H]5C[C@@H](O)[C@]5(C)[C@@H](C7=CC(=O)OC7)CC[C@]65O)C4)O[C@@H]3C)O[C@@H]2C)C[C@H](O)[C@@H]1O` [digoxin, 3-[(3S,5R,8R,9S, 10S, 12R, 13S, 14S, 17R)-3-[(2R,4S,5S,6R)-5-[(2S,4S,5S,6R)-5-[(2S,4S,5S,6R)-4,5-dihydroxy-6-methyloxan-2-yl]oxy-4-hydroxy-6-methyloxan-2-yl]oxy-4-hydroxy-6-methyloxan-2-yl]oxy-12,14-dihydroxy-10, 13-dimethyl-1,2,3,4,5,6,7,8,9, 11, 12, 15, 16, 17-tetradecahydrocyclopenta[a]phenanthren-17-yl]-2H-furan-5-one], the inhibition with SARS-CoV2 [2] (0.20-0.50 μM concentrations) is given as 73%-97%. Moreover, the IC50 in the assay with SARS-CoV2 [2] (setting [11]) is ~0.17 µM; with SARS-CoV2 [2] (setting [7]), 0.17 ± 0.05 µM.
For `COC(=O)N[C@H](C(=O)N[C@@H](Cc1ccccc1)[C@@H](O)CN(Cc1ccc(-c2ccccn2)cc1)NC(=O)[C@@H](NC(=O)OC)C(C)(C)C)C(C)(C)C` [atazanavir sulfate], the reduced infectivity with SARS-CoV2 [1] (setting [8]) came to 5%; with SARS-CoV2 [1] (setting [3]), 15%; in the assay with SARS-CoV2 [1] (setting [4]), 46%; in the assay on SARS-CoV2 [1] (setting [5]), 92%; with SARS-CoV2 [1] (pretreatment prior to virus infection, 5 μM) it was 28%; with SARS-CoV2 [1] (pretreatment prior to virus infection, 15 μM), 78%. The reduced infectivity in the assay with SARS-CoV2 [1] (pretreatment prior to virus infection, 25 μM) worked out at 100%. Also, the inhibition with SARS-CoV2 [2] (40-100 μM concentrations) is 86%-96%. Further, the IC50 was ~11 µM with SARS-CoV2 [2] (setting [11]) and 11.5 ± 1 µM in the assay with SARS-CoV2 [2] (setting [12]).
For the molecule `CCN(CCO)CCCC(C)Nc1ccnc2cc(Cl)ccc12` (centres unmarked) [hydroxychloroquine sulfate], the reduced infectivity in the assay with SARS-CoV2 [1] (setting [8]) came out at 6%; in the assay on SARS-CoV2 [1] (setting [3]), 18%; in the assay on SARS-CoV2 [1] (setting [4]), 47%; in the assay on SARS-CoV2 [1] (setting [5]), 63%; in the assay on SARS-CoV2 [1] (setting [9]), 81%; in the assay on SARS-CoV2 [1] (setting [6]), 92%. Besides, in the assay on SARS-CoV2 [1] (setting [10]), the reduced infectivity was 100%. For the same molecule, the inhibition in the assay with SARS-CoV2 [2] (40-100 μM concentrations) was 75-96%. In the assay with SARS-CoV2 [2] (setting [12]), the IC50 was 7.5 ± 1 µM. This molecule also registered a reduced the infection in the assay with SARS-CoV2 [2] (approximately 10 μM added immediately after virus adsorption, 24 hours) of 63%.

The record behind these values is patent publication US12239629B2 (priority 2020, dated 2025).
